Measured values reported in patent US20220402948A1, “EGFR INHIBITOR, COMPOSITION AND PREPARATION METHOD THEREFOR” (BETTA PHARMACEUTICALS CO., LTD., priority 2019, published 2022).
Read-outs that look alike come from different tables or passages of the source.

How the values were obtained:
[1] = target: IGF1R (Homo sapiens, UniProt P08069); assay: IGF1R kinase test (mobility variation analysis, Caliper EZ Reader); format: biochemical; conditions: kinase enzymatic activity, Table 1; read-out: EGFR IGF1R IC50
Method in brief: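 Kinase preincubated 10 min at room temperature with compound (10-point 3-fold series, top 3000 nM), then ATP and substrate added and reacted at room temperature. Substrate conversion read by mobility-shift (Caliper EZ Reader); % inhibition vs no-enzyme and no-compound controls fitted to variable-slope curve for IC50.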

[2] = target: Ba/F3-EGFR wild-type cell line (Homo sapiens, UniProt P00533); assay: Ba/F3-EGFR wild-type cell proliferation assay (CellTiter Glo, 72 hours); format: cell-based; conditions: Table 2, read-out: EGFR WT IC50
Description: Cell line: Ba/F3 cells with EGFR Δ19del/T790M/C797S mutation gene stably overexpressed named Ba/F3-Δ119del/T90M/C797S, and A431 and Ba/F3-EGFR wild-type cell line.
a) Centrifuge the growth cells in logarithmic phase at 1000 rpm for 5 minutes, resuspend the cells in culture medium, and then count the cells;
b) Inoculate the cells into a 96-well cell culture plate with a density of 2000 cells/well;
b) Incubate cells in an incubator for another 72 hours.
a) Take out the 96-well cell culture plate and add 50 μl CTG reagent (CellTiter Glo kit, promega, Cat #G7573);
b) Shake the plate for 2 minutes and let cool at room temperature for 10 minutes;
c) Read luminous signal value with PerkinElmer reader,
Analysis of Experimental Data
The data were analyzed by GraphPad Prism 6.0 software to obtain the fitting curve of compound activity.
Y=Min+(Max−Min)/(1+10^((Log IC50−X)*slope));
X: Logarithm of compound concentration; Y: luminous signal.

[3] = target: Ba/F3 cells with EGFR Δ19del/T790M/C797S mutation gene stably overexpressed (Homo sapiens, UniProt P00533, T790M/C797S, cells depend on it, form not given); assay: Ba/F3-Δ19del/T790M/C797S cell proliferation assay (CellTiter Glo, 72 hours); format: cell-based
Method in brief: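 Ba/F3 cells stably overexpressing wild-type EGFR or EGFR Δ19del/T790M/C797S were seeded at 2000 cells/well and incubated 72 h with compound. Viability was read by CellTiter-Glo luminescence, and IC50 came from a four-parameter logistic fit of signal against log concentration.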

[4] = system: A431; assay: A431 cell proliferation assay (CellTiter Glo, 72 hours); format: cell-based; conditions: Homo sapiens, A-431, 72 h
Method in brief: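 A431 cells (2000/well) exposed 72 h to compound at 1000 nM down to 0.2 nM in 3-fold steps, 0.1% DMSO (0.5% for some series). Viability by CellTiter-Glo luminescence; IC50 by four-parameter nonlinear regression.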

[5] = target: EGFRΔ19del/T790M/C797S (Homo sapiens, UniProt P00533, T790M/C797S, form not given); assay: EGFR Δ19del/T790M/C797S kinase test (mobility variation analysis, Caliper EZ Reader); format: biochemical; conditions: kinase enzymatic activity, Table 1
Method in brief: (§1)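 Kinase pre-incubated with compound 10 minutes at room temperature, then ATP plus peptide substrate added; substrate conversion read by mobility shift after stop solution. Percent inhibition normalized to no-compound and no-enzyme controls; IC50 from variable-slope log(inhibitor) fit.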

[6] = target: EGFR WT (Homo sapiens, UniProt P00533); assay: EGFR WT kinase test (mobility variation analysis, Caliper EZ Reader); format: biochemical; conditions: kinase enzymatic activity, Table 1
Method in brief: as §1

[7] = Table 2, read-out: EGFR Δ19del/T790M/C797S IC50
[8] = cell proliferation, A431, 72 hours, Table 2, read-out: A431 IC50

Chain of EGFRΔ19del/T790M/C797S (P00533 with tags, fused parts or gaps DEL746-750/T790M/C797S, form open): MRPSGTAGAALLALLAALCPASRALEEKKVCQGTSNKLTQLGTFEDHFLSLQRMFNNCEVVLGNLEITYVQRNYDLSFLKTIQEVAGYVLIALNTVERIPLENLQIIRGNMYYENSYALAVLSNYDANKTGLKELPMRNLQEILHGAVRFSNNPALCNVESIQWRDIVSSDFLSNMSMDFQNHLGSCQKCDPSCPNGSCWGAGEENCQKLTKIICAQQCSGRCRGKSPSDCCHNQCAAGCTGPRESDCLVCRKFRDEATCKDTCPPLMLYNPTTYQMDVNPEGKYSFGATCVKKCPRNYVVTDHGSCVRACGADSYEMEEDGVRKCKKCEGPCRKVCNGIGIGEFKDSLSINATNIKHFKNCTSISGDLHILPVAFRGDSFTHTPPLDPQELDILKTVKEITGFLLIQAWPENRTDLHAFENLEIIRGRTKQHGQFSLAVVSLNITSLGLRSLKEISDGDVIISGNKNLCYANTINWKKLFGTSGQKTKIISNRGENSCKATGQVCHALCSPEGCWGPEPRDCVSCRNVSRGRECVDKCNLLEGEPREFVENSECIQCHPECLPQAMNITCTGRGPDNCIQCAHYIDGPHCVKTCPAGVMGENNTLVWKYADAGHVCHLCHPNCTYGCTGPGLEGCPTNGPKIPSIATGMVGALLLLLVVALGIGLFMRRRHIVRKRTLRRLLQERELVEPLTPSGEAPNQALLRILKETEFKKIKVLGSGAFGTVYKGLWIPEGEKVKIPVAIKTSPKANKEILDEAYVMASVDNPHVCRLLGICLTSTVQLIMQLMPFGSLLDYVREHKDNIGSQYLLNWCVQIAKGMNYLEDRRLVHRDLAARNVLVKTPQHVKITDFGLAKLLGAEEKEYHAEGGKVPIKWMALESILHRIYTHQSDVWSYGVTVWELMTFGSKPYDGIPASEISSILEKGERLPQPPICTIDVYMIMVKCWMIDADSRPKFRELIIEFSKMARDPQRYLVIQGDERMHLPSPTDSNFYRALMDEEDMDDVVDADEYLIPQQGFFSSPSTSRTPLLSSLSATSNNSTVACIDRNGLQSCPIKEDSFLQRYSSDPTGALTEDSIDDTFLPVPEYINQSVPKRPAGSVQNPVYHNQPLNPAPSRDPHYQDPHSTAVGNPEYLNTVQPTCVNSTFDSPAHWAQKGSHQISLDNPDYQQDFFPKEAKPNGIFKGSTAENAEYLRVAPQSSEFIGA
Chain of Ba/F3 cells with EGFR Δ19del/T790M/C797S mutation gene stably overexpressed (P00533 with tags, fused parts or gaps DEL746-750/T790M/C797S, form open): as above
Chain of Ba/F3-EGFR wild-type cell line (P00533 whole entry, stated change not applied): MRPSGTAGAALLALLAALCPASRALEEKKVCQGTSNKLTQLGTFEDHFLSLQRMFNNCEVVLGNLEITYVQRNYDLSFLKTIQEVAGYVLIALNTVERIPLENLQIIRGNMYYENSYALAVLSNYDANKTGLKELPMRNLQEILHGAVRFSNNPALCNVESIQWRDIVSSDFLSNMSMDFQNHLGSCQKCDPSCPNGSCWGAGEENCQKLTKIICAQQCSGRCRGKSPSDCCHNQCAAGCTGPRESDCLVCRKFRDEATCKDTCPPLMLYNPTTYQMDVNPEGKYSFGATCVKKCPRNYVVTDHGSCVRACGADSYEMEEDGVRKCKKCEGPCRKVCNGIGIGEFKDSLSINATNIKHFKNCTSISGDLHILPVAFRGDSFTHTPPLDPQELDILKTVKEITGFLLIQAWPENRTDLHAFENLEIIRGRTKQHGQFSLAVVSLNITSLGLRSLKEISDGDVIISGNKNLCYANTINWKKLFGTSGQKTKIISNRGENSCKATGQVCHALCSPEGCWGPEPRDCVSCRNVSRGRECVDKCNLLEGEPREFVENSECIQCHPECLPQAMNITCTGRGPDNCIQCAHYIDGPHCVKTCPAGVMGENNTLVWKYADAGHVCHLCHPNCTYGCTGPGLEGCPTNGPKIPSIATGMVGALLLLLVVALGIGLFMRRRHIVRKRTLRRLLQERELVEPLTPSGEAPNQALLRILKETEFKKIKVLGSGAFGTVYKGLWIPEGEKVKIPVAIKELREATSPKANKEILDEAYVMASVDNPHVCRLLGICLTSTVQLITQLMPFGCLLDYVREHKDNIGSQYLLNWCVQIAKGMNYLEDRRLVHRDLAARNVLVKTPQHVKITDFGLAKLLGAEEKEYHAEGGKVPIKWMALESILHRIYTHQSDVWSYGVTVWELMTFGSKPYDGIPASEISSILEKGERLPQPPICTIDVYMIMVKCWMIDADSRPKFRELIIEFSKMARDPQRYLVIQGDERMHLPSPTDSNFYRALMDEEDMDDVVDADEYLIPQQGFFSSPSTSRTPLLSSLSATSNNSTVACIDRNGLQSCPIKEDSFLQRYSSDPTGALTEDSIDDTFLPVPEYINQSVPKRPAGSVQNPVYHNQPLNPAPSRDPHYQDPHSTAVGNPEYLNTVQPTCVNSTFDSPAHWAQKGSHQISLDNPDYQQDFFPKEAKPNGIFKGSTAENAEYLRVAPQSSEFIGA
Chain of IGF1R (P08069 31-1367, species assumed): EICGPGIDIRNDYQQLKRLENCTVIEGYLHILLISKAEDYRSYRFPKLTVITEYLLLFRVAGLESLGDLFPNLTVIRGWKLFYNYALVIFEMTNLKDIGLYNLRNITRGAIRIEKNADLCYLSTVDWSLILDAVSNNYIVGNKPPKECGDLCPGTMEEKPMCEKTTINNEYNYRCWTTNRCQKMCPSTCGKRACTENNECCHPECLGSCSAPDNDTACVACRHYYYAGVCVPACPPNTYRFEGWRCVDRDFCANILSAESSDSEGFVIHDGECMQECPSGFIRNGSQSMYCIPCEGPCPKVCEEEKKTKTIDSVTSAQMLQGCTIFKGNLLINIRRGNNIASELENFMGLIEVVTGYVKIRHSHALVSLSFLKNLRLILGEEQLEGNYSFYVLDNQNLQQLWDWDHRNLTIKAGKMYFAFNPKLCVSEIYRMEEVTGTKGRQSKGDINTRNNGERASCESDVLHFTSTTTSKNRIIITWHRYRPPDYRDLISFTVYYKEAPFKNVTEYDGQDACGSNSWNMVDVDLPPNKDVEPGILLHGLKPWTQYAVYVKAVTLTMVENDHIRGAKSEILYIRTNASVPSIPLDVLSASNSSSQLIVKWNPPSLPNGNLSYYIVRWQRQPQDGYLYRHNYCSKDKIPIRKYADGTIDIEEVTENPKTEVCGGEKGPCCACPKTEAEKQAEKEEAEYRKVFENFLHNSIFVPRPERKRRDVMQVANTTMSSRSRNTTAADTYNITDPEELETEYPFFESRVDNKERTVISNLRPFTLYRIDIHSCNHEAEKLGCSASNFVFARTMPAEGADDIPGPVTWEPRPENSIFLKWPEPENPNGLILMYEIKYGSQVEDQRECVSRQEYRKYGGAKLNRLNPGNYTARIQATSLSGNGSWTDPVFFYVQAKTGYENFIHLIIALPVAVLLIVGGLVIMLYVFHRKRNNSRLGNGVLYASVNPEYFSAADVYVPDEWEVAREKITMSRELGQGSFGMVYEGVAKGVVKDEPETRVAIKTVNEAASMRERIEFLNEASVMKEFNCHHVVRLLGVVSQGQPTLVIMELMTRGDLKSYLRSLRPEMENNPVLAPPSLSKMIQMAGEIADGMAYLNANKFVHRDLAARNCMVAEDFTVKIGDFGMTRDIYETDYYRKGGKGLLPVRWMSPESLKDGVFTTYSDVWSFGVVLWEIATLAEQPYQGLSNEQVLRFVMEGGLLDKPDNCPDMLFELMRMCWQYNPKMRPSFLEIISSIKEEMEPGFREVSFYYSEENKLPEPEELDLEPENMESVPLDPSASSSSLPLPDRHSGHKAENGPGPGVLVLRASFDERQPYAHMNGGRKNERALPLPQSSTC

## COc1cc(N2CCC(N3CCN(C)CC3)CC2)ccc1Nc1ncc(Cl)c(Nc2ccccc2P(C)(C)=O)n1 [Brigatinib, reference compound]
[1]
  IC50: 0.0234 µM
[2]
  GI50: 0.0225 µM
[3]; read-out: EGFR Δ19del/T790M/C797S IC50, Table 2
  GI50: 0.0649 µM
[4]; read-out: A431 IC50(nM)
  IC50: 309 nM

## CCc1cc(Nc2ncc(Br)c(Nc3ccc(-c4ccccc4)cc3P(C)(C)=O)n2)c(OC)cc1N1CCC(N2CCN(C)CC2)CC1 [Compound 1]
[1]
  IC50: 0.0915 µM
[2]
  GI50: 0.171 µM
[3]; [7]
  GI50: 0.0022 µM
[5]
  IC50: 0.0005 µM
[6]
  IC50: 0.0103 µM
[4]; [8]
  IC50: 935 nM

## CCc1cc(Nc2ncc(Br)c(Nc3ccc(-c4cnn(C)c4)cc3P(C)(C)=O)n2)c(OC)cc1N1CCC(N2CCN(C)CC2)CC1 [Compound 3, (2-((5-Bromo-2-((5-ethyl-2-methoxy-4-(4-(4-methylpiperazin-1-yl)piperidin-1-yl)phenyl)amino)pyrimidin-4-yl)amino)-5-(1-methyl-1hydro-pyrazol-4-yl)phenyl)dimethylphosphine oxide]
[1]
  IC50: 0.0537 µM
[2]
  GI50: 0.107 µM
[3]; [7]
  GI50: 0.0045 µM
[5]
  IC50: 0.0003 µM
[4]; [8]
  IC50: 602 nM

## CCc1cc(Nc2ncc(Br)c(Nc3ccc(-c4cnn(CC)c4)cc3P(C)(C)=O)n2)c(OC)cc1N1CCC(N2CCN(C)CC2)CC1 [Compound 4, (2-((5-Bromo-2-((5-ethyl-2-methoxy-4-(4-(4-methylpiperazin-1-yl)piperidin-1-yl)phenyl)amino)pyrimidin-4-yl)amino)-5-(1-ethyl-1hydro-pyrazol-4-yl)phenyl)dimethylphosphine oxide]
[1]
  IC50: 0.0719 µM
[2]
  GI50: 0.0843 µM
[3]; [7]
  GI50: 0.0019 µM
[5]
  IC50: 0.0006 µM
[4]; [8]
  IC50: 465 nM

## CCc1cc(Nc2ncc(Br)c(Nc3ccc(-c4ccco4)cc3P(C)(C)=O)n2)c(OC)cc1N1CCC(N2CCN(C)CC2)CC1 [Compound 16, (2-((5-Bromo-2-((5-ethyl-2-methoxy-4-(4-(4-methylpiperazin-1-yl)piperidin-1-yl)phenyl)amino)pyrimidin-4-yl)amino)-5-(furan-2-yl)phenyl)dimethylphosphine oxide]
[2]
  GI50: 0.141 µM
[3]; [7]
  GI50: 0.0054 µM
[5]
  IC50: 0.0004 µM
[4]; [8]
  IC50: 564 nM

## CCc1cc(Nc2ncc(Br)c(Nc3ccc(-c4cnn(C(C)C)n4)cc3P(C)(C)=O)n2)c(OC)cc1N1CCC(N2CCN(C)CC2)CC1 [Compound 85, (2-((5-Bromo-2-((5-ethyl-2-methoxy-4-(4-(4-methylpiperazin-1-yl)piperidin-1-yl)phenyl)amino)pyrimidin-4-yl)amino)-5-(2-isopropyl-2H-l,2,3-triazol-4-yl)phenyl)dimethylphosphine oxide]
[2]
  GI50: 1.12 µM
[3]; [7]
  GI50: 0.0286 µM
[4]; [8]
  IC50: 5770 nM

## CCc1cc(Nc2ncc(Br)c(Nc3ccc(-c4cnn(C)c4)cc3P(C)(C)=O)n2)c(OC)cc1N1CCC(N2CCCC2)CC1 [Compound K-001]
[2]
  GI50: 0.335 µM
[3]; [7]
  GI50: 0.0156 µM
[4]; [8]
  IC50: 371 nM

## CCn1cc(-c2cc(Nc3ncc(Br)c(Nc4ccc(-c5cc(C)n(C)n5)cc4P(C)(C)=O)n3)c(OC)cc2N2CCC(N3CCN(C)CC3)CC2)cn1 [Compound K-005, (2-((5-Bromo-2-((5-(1-ethyl-1H-pyrazol-4-yl)-2-methoxy-4-(4-(4-methylpiperazin-1-yl)piperidin-1-yl)phenyl)amino)pyrimidin-4-yl)amino)-5-(1,5-dimethyl-1H-pyrazol-3-yl)phenyl)dimethylphosphine oxide]
[2]
  GI50: 0.482 µM
[3]; [7]
  GI50: 0.0279 µM
[4]; [8]
  IC50: 415 nM

## CCc1cc(Nc2ncc(Br)c(Nc3ccc(-c4cnn(C(F)F)n4)cc3P(C)(C)=O)n2)c(OC)cc1N1CCC(N2CCN(C)CC2)CC1 [Compound K-006, (2-((5-Bromo-2-((5-ethyl-2-methoxy-4-(4-(4-methylpiperazin-1-yl)piperidin-1-yl)phenyl)amino)pyrimidin-4-yl)amino)-5-(2-(difluoromethyl)-2H-1,2,3-triazol-4-yl)phenyl)dimethylphosphine oxide]
[2]
  GI50: 0.18 µM
[3]; [7]
  GI50: 0.0116 µM
[4]; [8]
  IC50: 1270 nM

## COc1cnn(-c2ccc(Nc3nc(Nc4cc(C)c(N5CCOCC5)c(OC)c4)ncc3Br)c(P(C)(C)=O)c2)c1 [Compound K-031, (2-((5-Bromo-2-((3-methoxy-5-methyl-4-morpholinophenyl)amino)pyrimidin-4-yl)amino)-5-(4-methoxy-1H-pyrazol-1-yl)phenyl)dimethylphosphine oxide]
[1]
  IC50: 0.394 µM
[2]
  GI50: 0.15 µM
[3]; [7]
  GI50: 0.0168 µM
[5]
  IC50: 0.0014 µM
[6]
  IC50: 1.13 µM

## COc1cc(N2CCC(N3CCCCC3)CC2)c(-c2cnn(C)c2)cc1Nc1ncc(Br)c(Nc2ccc(-c3ccccc3)c(C)c2P(C)(C)=O)n1 [Compound K-051]
[2]
  GI50: 0.0158 µM
[3]; [7]
  GI50: 0.0014 µM
[4]; [8]
  IC50: 125 nM

## CCc1cc(Nc2ncc(Br)c(Nc3ccc(-c4cnc(C5CC5)cn4)cc3P(C)(C)=O)n2)c(OC)cc1N1CCC(N2CCN(C)CC2)CC1 [Compound K-064, (2-((5-Bromo-2-((5-ethyl-2-methoxy-4-(4-(4-methylpiperazin-1-yl)piperidin-1-yl)phenyl)amino)pyrimidin-4-yl)amino)-5-(5-cyclopropylpyrazin-2-yl)phenyl)dimethylphosphine oxide]
[2]
  GI50: 0.152 µM

## CCc1cc(Nc2ncc(Br)c(Nc3ccc(-c4cnc(C)cn4)cc3P(C)(C)=O)n2)c(OC)cc1N1CCC(N2CCN(C)CC2)CC1 [Compound K-065, (2-((5-Bromo-2-((5-ethyl-2-methoxy-4-(4-(4-methylpiperazin-1-yl)piperidin-1-yl)phenyl)amino)pyrimidin-4-yl)amino)-5-(5-methylpyrazin-2-yl)phenyl)dimethylphosphine oxide]
[2]
  GI50: 0.132 µM

## CCc1cc(Nc2ncc(Br)c(Nc3ccc(-c4cnc(C)c(C)n4)cc3P(C)(C)=O)n2)c(OC)cc1N1CCC(N2CCN(C)CC2)CC1 [Compound K-067, (2-((5-Bromo-2-((5-ethyl-2-methoxy-4-(4-(4-methylpiperazin-1-/l)piperidin-1-yl)phenyl)amino)pyrimidin-4-yl)amino)-5-(5,6-dimethylpyrazin-2-yl)phenyl)dimethylphosphine oxide]
[2]
  GI50: 0.417 µM

## CCc1cc(Nc2ncc(Br)c(Nc3ccc(-c4ccc(C)nc4)cc3P(C)(C)=O)n2)c(OC)cc1N1CCC(N2CCN(C)CC2)CC1 [Compound K-070, (2-((5-Bromo-2-((5-ethyl-2-methoxy-4-(4-(4-methylpiperazin-1-yl)piperidin-1-yl)phenyl)amino)pyrimidin-4-yl)amino)-5-(6-methylpyridin-3-yl)phenyl)dimethylphosphine oxide]
[2]
  GI50: 0.238 µM

## COc1cnn(-c2ccc(Nc3nc(Nc4cc(-c5cnn(C)c5)c(N5CCN(C6CCCC6)CC5)cc4OC)ncc3Br)c(P(C)(C)=O)c2)c1 [Compound K-081]
[2]
  GI50: 0.0521 µM
[3]; [7]
  GI50: 0.001 µM
[4]; [8]
  IC50: 379 nM

## COc1cnn(-c2ccc(Nc3nc(Nc4cc(-c5cnn(C)c5)c(N5CCN(C(C)=O)CC5)cc4OC)ncc3Br)c(P(C)(C)=O)c2)c1 [Compound K-082]
[2]
  GI50: 2.96 µM
[3]; [7]
  GI50: 0.0114 µM
[4]; [8]
  IC50: 1260 nM

## COc1cn(-c2ccc(Nc3nc(Nc4cc(-c5cnn(C)c5)c(N5CCN(c6cccnc6)CC5)cc4OC)ncc3Br)c(P(C)(C)=O)c2)cn1 [Compound K-083, (2-((5-Bromo-2-((2-methoxy-5-(1-methyl-1H-pyrazol-4-yl)-4-(4-(pyridin-3-yl)Piperazin-1-yl)phenyl)amino)pyrimidin-4-yl)amino)-5-(4-methoxy-1H-imidazol-1-yl)phenyl)dimethylphosphine oxide]
[2]
  GI50: 0.113 µM
[3]; [7]
  GI50: 0.001 µM
[4]; [8]
  IC50: 910 nM

## COc1cc(N2CCC(N3CCN(C)CC3)CC2)ccc1Nc1ncc(Cl)c(Nc2ccc(C)cc2P(C)(C)=O)n1 [compound 1, reference compound]
[1]
  IC50: 0.0441 µM
[2]
  GI50: 0.836 µM
[3]; [7]
  GI50: 0.0499 µM
[6]
  IC50: 0.06 µM
[4]; [8]
  IC50: 598 nM
